Reference: patent publication US10703756B2, “Pyrrolo[2,3-D]pyrimidinyl, pyrrolo[2,3-B]pyrazinyl, pyrrolo[2,3-B]pyridinyl acrylamides and epoxides thereof” (Pfizer Inc., priority 2015, dated 2020)

What was measured:
JAK3 enzyme [1] = target: T1, JAK3 enzyme (Homo sapiens, UniProt P52333); assay: JAK Caliper Enzyme Assay at 1 mM ATP; type: biochemical
T1 sequence (P52333 1-1124): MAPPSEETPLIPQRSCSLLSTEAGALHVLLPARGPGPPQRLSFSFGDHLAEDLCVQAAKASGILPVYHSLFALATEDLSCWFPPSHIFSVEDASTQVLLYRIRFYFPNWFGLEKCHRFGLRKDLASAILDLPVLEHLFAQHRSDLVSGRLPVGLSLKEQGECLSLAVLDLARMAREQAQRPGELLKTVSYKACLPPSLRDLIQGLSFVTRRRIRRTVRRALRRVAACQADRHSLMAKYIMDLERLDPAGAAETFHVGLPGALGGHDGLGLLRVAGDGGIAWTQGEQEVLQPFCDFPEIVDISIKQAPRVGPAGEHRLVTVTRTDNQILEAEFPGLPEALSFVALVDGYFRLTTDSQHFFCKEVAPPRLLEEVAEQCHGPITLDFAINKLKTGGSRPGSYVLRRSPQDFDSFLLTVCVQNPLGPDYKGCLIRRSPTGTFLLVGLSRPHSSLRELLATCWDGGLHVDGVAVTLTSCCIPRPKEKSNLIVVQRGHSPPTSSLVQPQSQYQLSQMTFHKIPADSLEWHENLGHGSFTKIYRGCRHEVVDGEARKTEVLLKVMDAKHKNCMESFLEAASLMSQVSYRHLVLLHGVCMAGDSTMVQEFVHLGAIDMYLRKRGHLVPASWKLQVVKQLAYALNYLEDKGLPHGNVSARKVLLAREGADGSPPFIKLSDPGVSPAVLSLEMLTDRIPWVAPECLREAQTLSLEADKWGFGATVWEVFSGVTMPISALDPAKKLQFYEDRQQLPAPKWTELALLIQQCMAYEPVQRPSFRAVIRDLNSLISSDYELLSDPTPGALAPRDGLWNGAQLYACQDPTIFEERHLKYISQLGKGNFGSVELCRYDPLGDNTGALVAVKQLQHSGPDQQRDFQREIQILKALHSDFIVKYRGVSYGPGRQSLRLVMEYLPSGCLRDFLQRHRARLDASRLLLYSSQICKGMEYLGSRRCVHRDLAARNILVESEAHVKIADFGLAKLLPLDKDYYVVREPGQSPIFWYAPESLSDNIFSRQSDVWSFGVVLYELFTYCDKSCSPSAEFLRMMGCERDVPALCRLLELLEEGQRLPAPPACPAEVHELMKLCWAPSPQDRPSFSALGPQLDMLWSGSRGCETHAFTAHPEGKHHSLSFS
Protocol: (§1) Test article was solubilized in dimethyl sulfoxide (DMSO) to a stock concentration of 30 mM. An 11-point half log dilution series was created in DMSO with a top concentration of 600 μM. […] Test article and assay controls were added to a 384-well plate. […] Enzyme concentrations and incubation times were optimized for each new enzyme preps and were modified slightly over time to ensure 20%-30% phosphorylation. […] The assay plates were placed on a Caliper Life Science Lab Chip 3000 (LC3000) instrument, and each well was sampled using appropriate separation conditions to measure the unphosphorylated and phosphorylated peptide.

JAK3 enzyme [2] = target: T1, JAK3 enzyme; assay: JAK Caliper Enzyme Assay at 4 μM ATP; type: biochemical
Protocol: as §1

Structure (SMILES)	IC50 (JAK3 enzyme [1]) [nM]	IC50 (JAK3 enzyme [2]) [nM]
C=CC(=O)N1CC[C@H](Nc2cnc3[nH]cc(C(=O)NCCC(F)(F)F)c3n2)C1 (single isomer, unassigned) [Example 255]	846	6.37
C=CC(=O)N1CCC(Oc2cnc3[nH]cc(C(=O)NC[C@@]4(O)CCCC[C@H]4F)c3n2)CC1 [Example 208, 2-[(1-acryloylpiperidin-4-yl)oxy]-N-{[(2R)-2-fluoro-1-hydroxycyclohexyl]methyl}-5H-pyrrolo[2,3-b]pyrazine-7-carboxamide]	734	6.99
C=CC(=O)N1CCC(Oc2cnc3[nH]cc(C(=O)NCc4cccc(F)c4)c3c2)CC1 [Example 340, 5-[(1-acryloylpiperidin-4-yl)oxy]-N-(3-fluorobenzyl)-1H-pyrrolo[2,3-b]pyridine-3-carboxamide]	3470	30
C=CC(=O)N1CC[C@@H](COc2cnc3[nH]cc(C(=O)N[C@H](C)COC)c3n2)C1 (single isomer, unassigned) [Example 14]	3010	54.8
C=CC(=O)N1C[C@H](CC)[C@H](Nc2cnc3[nH]cc(C(=O)NCC)c3n2)C1 [Example 241, 2-{[(3S,4S)-1-acryloyl-4-ethylpyrrolidin-3-yl]amino}-N-ethyl-5H-pyrrolo[2,3-b]pyrazine-7-carboxamide]	857	3.79
C=CC(=O)N1CCN(c2cnc3[nH]cc(C(=O)NC(CO)c4ccccc4F)c3n2)CC1(C)C (racemic) [Example 154, Racemic-2-(4-acryloyl-3,3-dimethylpiperazin-1-yl)-N-[1-(2-fluorophenyl)-2-hydroxyethyl]-5H-pyrrolo[2,3-b]pyrazine-7-carboxamide]	590	4.68
C=CC(=O)N1CCC(Nc2cnc3[nH]cc(C(=O)NC[C@H](C)CC(F)(F)F)c3n2)CC1C (stereo partly drawn) [Example 280, 2-[(1-acryloyl-2-methylpiperidin-4-yl)amino]-N-[(2R)-4,4,4-trifluoro-2-methylbutyl]-5H-pyrrolo[2,3-b]pyrazine-7-carboxamide]	501	2.49
C=CC(=O)N1CCC[C@@H]1COc1cnc2[nH]cc(C(=O)N[C@@H](C)COC)c2n1 (single isomer, unassigned) [Example 9]	1210	8.86
C=CC(=O)N1CCC(Oc2cnc3[nH]cc(C(=O)NCC4(O)CC[C@@H](C)C4)c3n2)CC1 (mixture of isomers) [Example 226]	430	2.12
C=CC(=O)N1C[C@H](Nc2cnc3[nH]cc(C(=O)NCCOC)c3n2)C[C@H]1COC [Example 258, 2-{[(3R,5S)-1-acryloyl-5-(methoxymethyl)pyrrolidin-3-yl]amino}-N-(2-methoxyethyl)-5H-pyrrolo[2,3-b]pyrazine-7-carboxamide]	1050	6.23
C=CC(=O)N1C[C@H](Nc2ncnc3[nH]ccc23)CC[C@@H]1CNC(C)=O (single isomer, unassigned) [Example 89]	7670	76.4
C=CC(=O)N1CCC(Oc2cnc3[nH]cc(C(=O)NCCC(F)(F)F)c3c2)CC1 [Example 338, 5-[(1-acryloylpiperidin-4-yl)oxy]-N-(3,3,3-trifluoropropyl)-1H-pyrrolo[2,3-b]pyridine-3-carboxamide]	2780	31.4
C=CC(=O)N1CC(Nc2cnc3[nH]cc(C(=O)NCC)c3n2)C2(CC2)C1 (stereo not shown) [Example 244, 2-[(5-acryloyl-5-azaspiro[2.4]hept-7-yl)amino]-N-ethyl-5H-pyrrolo[2,3-b]pyrazine-7-carboxamide]	> 10000	82.3
C=CC(=O)N1CCC(Oc2cnc3[nH]cc(C(=O)NCC4CCC4)c3c2)CC1 [Example 345, 5-[(1-acryloylpiperidin-4-yl)oxy]-N-(cyclobutylmethyl)-1H-pyrrolo[2,3-b]pyridine-3-carboxamide]	4030	43.7
